Assay results published in US6900193B1, “Structural modification of 19-norprogesterone I: 17-α-substituted-11-β-substituted-4-aryl and 21-substituted 19-norpregnadienedione as new antiprogestational agents” (The United States of America as represented by the …, priority 1996, dated 2005).
One block for each compound: values may come before it.

Legend:
[1] = target: T1, glucocorticoid receptor (estrogen-primed rabbit thymus) (Oryctolagus cuniculus, UniProt P59667); experiment: Relative binding affinity, glucocorticoid receptor; conditions: estrogen-primed rabbit thymus, dexamethasone = 100%; for BINDING AFFINITY Glucocortic: Table 2
T1 construct: preparation of cytosols for the progesterone and glucocorticoid receptor assays; from tissue; host or cells: thymus of estradiol-primed immature female New Zealand White rabbits (cytosol)
T1 sequence (P59667 1-772): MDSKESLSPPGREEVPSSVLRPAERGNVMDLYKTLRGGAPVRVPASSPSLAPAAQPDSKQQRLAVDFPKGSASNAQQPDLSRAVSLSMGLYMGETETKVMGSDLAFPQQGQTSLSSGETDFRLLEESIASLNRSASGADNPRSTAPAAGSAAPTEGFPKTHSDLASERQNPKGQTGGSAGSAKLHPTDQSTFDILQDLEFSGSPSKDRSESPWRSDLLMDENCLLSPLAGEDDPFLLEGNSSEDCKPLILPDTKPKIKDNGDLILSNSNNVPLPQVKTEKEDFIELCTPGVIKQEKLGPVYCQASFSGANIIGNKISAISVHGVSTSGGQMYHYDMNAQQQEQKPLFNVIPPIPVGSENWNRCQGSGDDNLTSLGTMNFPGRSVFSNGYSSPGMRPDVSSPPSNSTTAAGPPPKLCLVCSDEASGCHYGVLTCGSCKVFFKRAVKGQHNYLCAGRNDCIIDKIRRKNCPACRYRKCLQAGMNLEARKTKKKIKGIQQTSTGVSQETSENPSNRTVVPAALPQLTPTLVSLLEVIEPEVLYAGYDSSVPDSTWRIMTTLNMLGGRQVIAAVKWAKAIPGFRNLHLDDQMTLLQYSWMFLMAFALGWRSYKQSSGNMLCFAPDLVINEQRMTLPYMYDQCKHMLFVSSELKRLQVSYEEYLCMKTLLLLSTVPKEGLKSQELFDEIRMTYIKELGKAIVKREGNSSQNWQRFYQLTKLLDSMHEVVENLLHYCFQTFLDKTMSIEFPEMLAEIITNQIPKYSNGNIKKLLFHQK
Procedure: (§1) Relative Binding Affinities for the Progesterone and Glucocorticoid Receptors
(§2) Uteri and thymus glands were obtained from estradiol-primed immature female rabbits of the New Zealand White strain for preparation of cytosols for the progesterone and glucocorticoid receptor assays, respectively. Tissues were excised and immediately placed in ice cold TEGDM buffer (10 mM Tris, pH 7.4; 1.5 mM EDTA; 10% glycerol vol/vol/; 1 mM dithiothreitol [DTT]; and 20 mM sodium molybdate). The tissues were dissected free of connective tissue and fat, weighed and minced finely. Minced tissues were homogenized in 3 volumes TEGDM/gm with four 10 second bursts of a VirTis Cyclone set at half maximum speed with a 30 second cooling period (in ice) between bursts. Homogenates were centrifuged at 109,663 g at 4° C. for 1 hour to yield the soluble cytosol fiction. Aliquots of cytosol were snap frozen and stored at −75° C.
(§3) All binding assays were carried out at 2-6° C. for 16-18 hours. The following radioactive ligands were used: [1,2-^3H(N)]-progesterone (50.0 Ci/mmole) for the progesterone receptor (PR). […] For the progesterone receptor RBA assays 0.02 ml uterine cytosol or TEDGM buffer, 0.05 ml of various concentrations of test compounds or progesterone, 0.13 ml TEGDM buffer and 0.05 ml [^3H]-progesterone were added to duplicate tubes. For the glucocorticoid receptor RBA assays 0.1 ml thymus cytosol or TEDGM buffer, 0.05 ml of various concentrations of test compounds or dexamethasone, 0.05 ml TEGDM buffer and 0.05 ml [3H]-dexamethasone were added to duplicate tubes. For the estrogen receptor RBA assays 0.05 ml uterine cytosol, 0.1 ml TEGDM buffer, 0.05 ml of various concentrations of test compounds or estradiol and 0.05 ml [^3H]-estradiol were added to duplicate tubes. The concentrations of the test compounds, progesterone, dexamethasone and estradiol ranged from 0.05 to 100 nM and the concentrations of the competitors ranged from 0.5 to 500 nM. Total binding was measured at radioligand concentrations of 3.5 nM and nonspecific binding was measured in the presence of a 200-fold excess of unlabeled progesterone (PR), dexamethasone (GR) or diethylstilbestrol (ER), respectively.
(§4) In all incubations bound and free ligand were separated using dextra-coated charcoal (DCC). A 0.1 ml aliquot of DCC (0.5% charcoal/0.05% Dextran T-70) was added to each tube. The tubes were vortexed and incubated on ice for 10 minutes. Five-tenths ml TEG buffer (without DTT or molybdate) was then added to all tubes to improve supernatant recovery following centrifugation. The charcoal was pelleted by centrifugation at 2,100 g for 15 minutes at 4° C. The supernatants containing the [^3H]-steroid receptor complexes were decanted into vials containing 4 ml Optifluor (Packard Instrument Co.), vortexed, equilibrated in a liquid scintillation counter for 30 minutes and then counted for 2 minutes. This provided the quantity of receptor bound [^3H]-steroid at each competitor concentration.

[2] = system: progesterone-induced endometrial proliferation; experiment: AntiClauberg test; assay type: in vivo, rabbit; set-up: key to ANTIPROGESTATIONAL Anti-Clauberg: relative oral potency vs. reference compound set to 100; conditions: oral; for antiClauberg / oral antiprogestational activity, in words: versus the standard 69B; for BIOLOGICAL ACTIVITY antiClauberg: Table 2
Procedure: AntiClauberg Test (Clauberg, C., Zentr. Gynakol., 54:2757-2770 (1930)) Immature female rabbits of the New Zealand White breed (approx. 1 kg body weight) were maintained under standard laboratory conditions and received a subcutaneous injection of 5 μg estradiol in 10% ethanol/sesame oil daily for 6 consecutive days. Twenty-four hours after the last dose of estradiol (day 7) animals received progesterone by subcutaneous injection (0.8 mg/day) and the experimental compound in appropriate vehicle (usually 10% ethanol/sesame oil) orally or subcutaneously for five consecutive days. One group of rabbits received progesterone only. Twenty-four hours after the last dose all animals were sacrificed for removal of the uterus which was cleaned of all fat and connective tissue, weighed to the nearest 0.2 mg and placed in 10% neutral buffered formalin for subsequent histological processing. Five micron sections stained with hematoxylin and eosin (H&E) were evaluated microscopically for the degree of endometrial glandular proliferation according to the method of McPhail (McPhail, supra). The percent inhibition of endometrial proliferation at each dose level of the experimental compound was derived by comparison with the progesterone-stimulated animals alone.

[3] = target: T2, progesterone receptor (estrogen-primed rabbit uterus) (Oryctolagus cuniculus, UniProt P06186); experiment: Relative binding affinity, progesterone receptor; conditions: for binding affinities compared with the standard, compound 69B: progesterone receptor implied (rabbit or human isoform A not specified); for BINDING AFFINITY Progester: Table 2
T2 construct: preparation of cytosols for the progesterone and glucocorticoid receptor assays; from tissue; host or cells: uterus of estradiol-primed immature female New Zealand White rabbits (cytosol)
T2 sequence (P06186 1-930): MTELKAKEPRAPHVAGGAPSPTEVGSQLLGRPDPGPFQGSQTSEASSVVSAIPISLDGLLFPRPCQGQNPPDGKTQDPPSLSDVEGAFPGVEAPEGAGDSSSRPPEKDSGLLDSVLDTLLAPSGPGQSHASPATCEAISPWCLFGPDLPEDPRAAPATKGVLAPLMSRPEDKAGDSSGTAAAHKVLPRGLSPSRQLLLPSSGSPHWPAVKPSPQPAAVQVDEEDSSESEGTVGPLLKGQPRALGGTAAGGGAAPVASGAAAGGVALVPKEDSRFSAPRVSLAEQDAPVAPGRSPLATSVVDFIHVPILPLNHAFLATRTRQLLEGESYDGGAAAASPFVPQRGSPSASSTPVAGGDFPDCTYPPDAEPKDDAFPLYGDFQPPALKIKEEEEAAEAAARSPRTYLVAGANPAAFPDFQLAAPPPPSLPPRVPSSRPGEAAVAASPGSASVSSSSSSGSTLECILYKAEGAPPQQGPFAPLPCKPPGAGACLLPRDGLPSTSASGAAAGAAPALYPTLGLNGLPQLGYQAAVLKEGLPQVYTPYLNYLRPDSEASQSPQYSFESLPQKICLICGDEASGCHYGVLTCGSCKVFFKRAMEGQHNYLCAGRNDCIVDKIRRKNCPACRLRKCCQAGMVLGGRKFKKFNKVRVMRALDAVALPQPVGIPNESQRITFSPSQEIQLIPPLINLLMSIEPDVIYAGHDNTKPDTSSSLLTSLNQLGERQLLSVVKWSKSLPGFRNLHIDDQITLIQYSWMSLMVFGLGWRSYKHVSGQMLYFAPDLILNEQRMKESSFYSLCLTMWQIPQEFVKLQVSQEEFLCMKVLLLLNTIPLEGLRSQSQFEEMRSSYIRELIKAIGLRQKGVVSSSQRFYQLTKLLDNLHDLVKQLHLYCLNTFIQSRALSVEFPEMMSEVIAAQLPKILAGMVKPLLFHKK
Procedure: as §1, §2, §3, §4

[4] = estrogen-primed rabbit uterus, progesterone = 100%

SMILES: CCOCC(=O)[C@@]1(OC(C)=O)CCC2C3CCC4=CC(=O)CCC4=C3C(c3ccc(N(C)C)cc3)C[C@@]21C (stereo partly drawn) [Compound 46, 17α-acetoxy-21-ethoxy-11β-[4-(N,N-dimethylamino)phenyl]-9-norpregna-4,9-diene-3,20-dione]
RELATIVE BINDING AFFINITY Glucocorticoid [1]: 46% | ANTIPROGESTATIONAL Anti-Clauberg ([2]; relative potency, CDB-2914 = 100 (assigned)): 130-210 | antiClauberg / oral antiprogestational activity, in words [2]: greater activity than the standard | RELATIVE BINDING AFFINITY Progesterone [3, 4]: 83%

SMILES: COCC(=O)C1(OC)CCC2C3CCC4=CC(=O)CCC4=C3C(c3ccc(C(C)=O)cc3)CC21C (stereo not drawn) [Compound 113d, 17α,21-Dimethoxy-11β-(4-acetylphenyl)-19-norpregna-4,9-diene-3,20-dione]
binding affinities compared with the standard, compound 69B [3]: binding affinities greater than that observed for the standard

SMILES: CCC(=O)OCC(=O)[C@@]1(OC(C)=O)CCC2C3CCC4=CC(=O)CCC4=C3C(c3ccc(N(C)C)cc3)C[C@@]21C (stereo partly drawn) [Compound 126a, 17α-Acetoxy-11β-[4-(N,N-dimethylamino)phenyl]-21-propionyloxy-19-norpregna-4,9-diene-3,20-dione]
BINDING AFFINITY Glucocortic [1]: 43% | BIOLOGICAL ACTIVITY antiClauberg ([2]; CDB-2914 = 100 (assigned)): 170 | antiClauberg / oral antiprogestational activity, in words [2]: greater activity than the standard | BINDING AFFINITY Progester [3, 4]: 95%

SMILES: CSc1ccc([C@H]2C[C@@]3(C)[C@@H](CC[C@]3(OC(C)=O)C(C)=O)[C@@H]3CCC4=CC(=O)CCC4=C32)cc1 [Compound 74]
BINDING AFFINITY Glucocortic [1]: 32% | BIOLOGICAL ACTIVITY antiClauberg ([2]; CDB-2914 = 100 (assigned)): <10 | BINDING AFFINITY Progester [3, 4]: 131%

SMILES: CC(=O)O[C@]1(C(C)=O)CC[C@H]2[C@@H]3CCC4=CC(=O)CCC4=C3[C@@H](c3ccc(N4CCCC4)cc3)C[C@@]21C [Compound 70, 17α-Acetoxy-11β-[4-(N-pyrrolidino)phenyl]-19-norpregna-4,9-diene-3,20-dione]
BIOLOGICAL ACTIVITY antiClauberg ([2]; CDB-2914 = 100 (assigned)): ˜25 | BINDING AFFINITY Progester [3, 4]: 79%

SMILES: COCC(=O)C1(OC(C)=O)CCC2C3CCC4=CC(=O)CCC4=C3C(c3ccc(C(C)=O)cc3)CC21C (stereo not drawn) [Compound 123b, 17α-Acetoxy-11β-(4-acetylphenyl)-21-methoxy-19-norpregna-4,9-diene-3,20-dione]
BINDING AFFINITY Glucocortic [1]: 45% | BIOLOGICAL ACTIVITY antiClauberg ([2]; CDB-2914 = 100 (assigned)): 77 | BINDING AFFINITY Progester [3, 4]: 64%

BINDING AFFINITY Glucocortic [1]: 45% | BINDING AFFINITY Progester [3, 4]: 63%
SMILES: COCC(=O)C1(OC)CCC2C3CCC4=CC(=O)CCC4=C3C(c3ccc(N4CCCCC4)cc3)CC21C (stereo not drawn) [Compound 113c, 17α,21-Dimethoxy-11β-[4-(N-piperidino)phenyl]-19-norpregna-4,9-diene-3,20-dione]
BIOLOGICAL ACTIVITY antiClauberg ([2]; CDB-2914 = 100 (assigned)): 70

BINDING AFFINITY Glucocortic [1]: 79% | BINDING AFFINITY Progester [3, 4]: 30%
SMILES: CN(C)c1ccc([C@H]2C[C@@]3(C)[C@@H](CC[C@]3(OC=O)C(=O)COC=O)[C@@H]3CCC4=CC(=O)CCC4=C32)cc1 [Compound 139, 17α,21-Diformyloxy-11β-[4-(N,N-dimethylamino)phenyl]-19-norpregna-4,9-diene-3,20-dione]
BIOLOGICAL ACTIVITY antiClauberg ([2]; CDB-2914 = 100 (assigned)): inactive

SMILES: COC(=O)OCC(=O)C1(OC(C)=O)CCC2C3CCC4=CC(=O)CCC4=C3C(c3ccc(N(C)C)cc3)CC21C (stereo not drawn) [Compound 126c, 17α-Acetoxy-21-hydroxy-11β-[4-(N,N-dimethylamino)phenyl]-19-norpregna-4,9-diene-3,20-dione-21-methyl carbonate]
BINDING AFFINITY Glucocortic [1]: 67% | BIOLOGICAL ACTIVITY antiClauberg ([2]; CDB-2914 = 100 (assigned)): 224 | antiClauberg / oral antiprogestational activity, in words [2]: greater activity than the standard | BINDING AFFINITY Progester [3, 4]: 68%

SMILES: COCC(=O)C1(O)CCC2C3CCC4=CC(=O)CCC4=C3C(c3ccc(C(C)=O)cc3)CC21C (stereo not drawn) [Compound 122b, 17α-Hydroxy-11β-(4-acetylphenyl)-21-methoxy-19-norpregna-4,9-diene-3,20-dione]
binding affinities compared with the standard, compound 69B [3]: binding affinities greater than that observed for the standard

SMILES: CC(=O)OC1(C(C)=O)CCC2C3CCC4=CC(=O)CCC4=C3C(c3ccc(C(C)=O)cc3)CC21C (stereo not drawn) [Compound 73, 17α-Acetoxy-11β-(4-acetylphenyl)-19-norpregna-4,9-diene-3,20-dione]
binding affinities compared with the standard, compound 69B [3]: binding affinities greater than that observed for the standard

BINDING AFFINITY Glucocortic [1]: 34% | BINDING AFFINITY Progester [3, 4]: 59%
SMILES: COCC(=O)C1(OC)CCC2C3CCC4=CC(=O)CCC4=C3C(c3ccc(N4CCCC4)cc3)CC21C (stereo not shown) [Compound 113b]
